Reference: PubChem BioAssay (NCI)
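Compound exposure: 48 hours, 5 concentrations, 96-well plates. At the GI50, growth is halved. TGI is the concentration that stops growth completely.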

Legend:
Experiment in all cases: inhibition of tumour cell growth, NCI panel, 48 h
NCI-H522 lung = tested on: NCI-H522 lung
SF-295 CNS = tested on: SF-295 CNS
SK-MEL-28 melanoma = tested on: SK-MEL-28 melanoma
COLO 205 colon = tested on: COLO 205 colon
DMS 114 small cell lung = tested on: DMS 114 small cell lung
XF 498 CNS = tested on: XF 498 CNS
LXFL 529 NSCLC = tested on: LXFL 529 NSCLC
KM20L2 colon = tested on: KM20L2 colon
DLD-1 colon = tested on: DLD-1 colon

SMILES	TGI (NCI-H522 lung) [µM]	TGI (SF-295 CNS) [µM]	TGI (SK-MEL-28 melanoma) [µM]	TGI (COLO 205 colon) [µM]	TGI (DMS 114 small cell lung) [µM]	TGI (XF 498 CNS) [µM]	TGI (LXFL 529 NSCLC) [µM]	TGI (KM20L2 colon) [µM]	TGI (DLD-1 colon) [µM]	GI50 (SF-295 CNS) [µM]
COc1cc(NP(=O)(Oc2ccccc2)Oc2ccccc2)ccc1Nc1c2ccccc2nc2c1[nH]c1ccccc12	7.32	13.1	48.2	> 43	–	–	–	–	–	–
O=C(C[n+]1ccccc1)N=N/C(C(=O)Nc1c(Cl)c(O)c2ccccc2c1O)=C1/C(=O)Oc2cc(O)ccc2C1=O	7.3	11.8	–	10.4	–	–	–	–	–	–
CC(=O)N(CCc1ccccc1)C(C#N)c1ccc(OCCCCCCCCCCOc2ccc(C(C#N)N(CCc3ccccc3)C(C)=O)cc2)cc1 (stereo not drawn)	–	51.6	> 100	> 100	–	–	–	–	–	–
O=C(O)c1ccccc1C(=O)Nn1cnnc1	> 100	> 100	> 100	> 100	–	–	–	–	–	–
O=C(C1C(c2ccccc2)N1C(c1ccccc1)c1ccccc1)C1C(c2ccccc2)N1C(c1ccccc1)c1ccccc1 (stereo not drawn)	23.7	> 100	36.1	–	–	–	–	–	–	–
OC(C/C(=N\N1CCCCC1)c1cccs1)(C(F)(F)F)C(F)(F)F	> 10	> 10	> 10	> 10	–	–	–	–	–	–
Cc1ccc(SCC(CF)OCn2cc(F)c(=O)[nH]c2=O)cc1 (stereo not drawn)	> 100	> 100	> 100	–	–	–	–	–	–	–
C[C@H]1C[C@H](C)c2ccccc2N(C)C1=Nc1ccccc1	–	> 100	> 100	49.7	–	–	–	–	–	–
CN(/N=C/c1ccccn1)C1=NCCCCN1	> 100	> 100	> 100	> 100	–	–	–	–	–	–
O=C1c2ccccc2-c2ccc(N=Nc3c(O)ccc4ccccc34)cc21	> 100	> 100	> 100	> 100	–	–	–	–	–	–
CC1=NN(C(=O)c2ccccc2O)C(=O)/C1=C/c1ccccc1O	17.9	> 100	> 100	> 89.1	8.86	> 100	> 100	> 100	> 100	–
Cc1ccc(Nc2nc(N)nc3c2ncn3C2OC(CO)C(O)C2O)cc1 (stereo not drawn)	> 100	> 100	> 100	> 100	–	–	–	–	–	–
CC(=O)NC1C(O)C(O)C(CO)OC1n1ncc(=O)[nH]c1=O (stereo not drawn)	> 100	> 100	> 100	> 100	–	–	–	–	–	–
O=c1[nH]c(=S)[nH]n1C(=S)n1[nH]c(=S)[nH]c1=O	> 100	> 100	> 100	> 100	–	–	–	–	–	–
CC1=C(C(=O)NCCc2ccccc2)CC(C(=O)NCCc2ccccc2)=C(C)N1	> 100	> 100	–	> 100	–	–	–	–	–	–
O=C1c2c(ccc3c2CCC3)CC12Cc1cc3c(cc1C2)CCC3	> 100	> 100	> 100	> 100	–	–	–	–	–	–
O=c1oc2ccccc2nc1/C=C(\O)c1ccc([N+](=O)[O-])cc1	> 100	> 100	–	> 100	–	–	–	–	–	–
CN(C)CCCCN1c2ccccc2Sc2cc(N=[N+]=[N-])ccc21	3.05	4.05	3.3	3.09	–	–	–	–	–	–
COC1=C(N2CC2)C(=O)c2nc3n(c2C1=O)CCC3	0.385	2.07	12.2	2.13	–	–	–	–	–	–

SMILES	TGI (NCI-H522 lung) [µM]	TGI (SF-295 CNS) [µM]	TGI (SK-MEL-28 melanoma) [µM]	TGI (COLO 205 colon) [µM]	TGI (DMS 114 small cell lung) [µM]	TGI (XF 498 CNS) [µM]	TGI (LXFL 529 NSCLC) [µM]	TGI (KM20L2 colon) [µM]	TGI (DLD-1 colon) [µM]	GI50 (SF-295 CNS) [µM]
CCOC(=O)C1C(c2ccc(OC)cc2)c2c([nH][nH]c2=O)CC1(O)OCC (stereo not drawn)	> 100	> 100	> 100	> 100	–	–	–	–	–	–
COC(=O)C1=Cc2cc(OC)c(O)cc2[C@@H](c2ccc(O)c(OC)c2)[C@@H]1C(=O)OC	> 100	> 100	> 100	> 100	–	–	–	–	–	–
CC(=O)OCC1OC(N2C(C)=C(C(C)=O)C(c3ccco3)C(C#N)=C2S)C(OC(C)=O)C(OC(C)=O)C1OC(C)=O (stereo not drawn)	> 100	> 100	> 100	> 100	–	–	–	–	–	–
[O-][n+]1onc(-c2ccccc2)c1CN1CCOCC1	> 100	> 100	> 100	> 100	–	–	–	–	–	–
CNn1c(C)n[nH]c1=O	> 100	> 100	> 100	> 100	–	–	–	–	–	–
CCCCCC(CO)C(O)(C(F)(F)F)C(F)(F)F (stereo not drawn)	> 10	> 10	> 10	> 10	–	–	–	–	–	–
N#Cc1c(Cl)/c(=C/O)c(=O)n2c1nc1ccccc12	> 100	> 100	> 100	> 100	–	–	–	–	–	–
Nc1cn(Cc2ccccc2)c2nc(/C=C3/C=CC=CC3=O)c(O)n12	> 100	> 100	> 100	> 100	–	–	–	–	–	–
CCCCC(=O)NC1(c2cc3ccccc3s2)CCCCC1	> 100	> 100	> 100	> 100	–	–	–	–	–	–
O=C1CCC2CCC1C2 (stereo not drawn)	–	> 100	> 100	> 100	–	–	–	–	–	–
Cc1nn(-c2ccccc2)c2[nH]c(=S)cnc12	> 100	> 100	> 100	–	–	–	–	–	–	–
[N-]=[NH+]CC(=O)OC(COCc1ccccc1)COCc1ccccc1	> 100	> 100	> 100	> 100	–	–	–	–	–	–
CCOC(=O)/C(C#N)=C1\c2c([nH]c(=S)[nH]c2=O)Oc2ccc3ccccc3c21	54.5	> 100	3.81	> 100	–	–	–	–	–	–
CCCCCCCCCCCCC(O)C1CCC(C(O)CCCCCCC(O)CCCCCCCC2=CC(C)OC2=O)O1 (stereo not drawn)	56.9	> 100	> 100	44.2	–	–	–	–	–	17.5
O=[N+]([O-])c1ccc2[nH]ncc2c1Cl	16.5	> 100	> 100	28.2	–	–	–	–	–	–
Cc1cccc(C)c1NC(=S)NC=C(C(N)=O)C(N)=O	> 100	> 100	> 100	> 100	–	–	–	–	–	–
COc1ccc(-c2c(CN3CCOCC3)sc3nc4ccccc4n23)cc1	> 20.2	> 100	98.6	49.4	–	–	–	–	–	–
COc1cc(C2C3=C(COC3=O)Oc3cc4c(cc32)OCO4)ccc1OC(C)=O (stereo not drawn)	–	–	> 100	0.602	–	–	–	–	–	–
